Experimental data: patent US8940719B2, “Lithocholic acid analogues that inhibit sialyltransferase” (Academia Sinica, priority 2006, dated 2015)

Legend:
Rat liver α-2,3-ST = Rat liver α-2,3-ST (Rattus norvegicus (Rat), UniProt Q02734); assay: α-2,3-ST inhibition assay (IC50), RP-HPLC of sialylated disaccharide product; format: biochemical; details: for IC50: α-2,3-ST, CMP-Neu5Ac substrate, triplicate, read-out: IC50
Experimental: Compound synthesis was carried out with the following materials according the following general procedures. All chemicals and buffers were purchased from Sigma, Aldrich, or Acros Organics; and all amino acids were purchased from Advanced Chemtech. CMP-Neu5Ac was synthesized starting with sialic acid (Traving & Schauer, Cell. Mol. Life Sci., 1998, 54:1330; Schwarzkopf et al., Proc. Natl. Acad. Sci. USA, 2002, 99:5267). Synthesis of lactose acceptor was achieved as described in Harduin-Lepers et al., Biochimie, 2001, 83:727. Rat liver α-2,3-ST was obtained from CalBiochem at a concentration of 3.7 mU/μL, stored at −80° C., and used within one week. Melting points (m.p.) were recorded with a capillary melting point apparatus (Electrothermal MEL-TEMP); FT-IR spectra were recorded with Perkin Elmer FT-IR Spectrometer (Paragon 1000) in KBr pellets; ^1H and ^13C NMR spectra were recorded with Bruker AMX400 or 500 MHz instruments. Proton chemical shifts (δ) are reported in parts per million (ppm) relative to the methine singlet at 7.24 ppm for the residual CHCl3 in the deuteriochloroform, or the methyl pentet at 3.30 ppm for the residual CHD2OD in the methanol-d4. Carbon chemical shifts are reported in ppm relative to the internal ^13C signals in CDCl3 (77.0 ppm) and CD3OD-d4 (49.0 ppm). Mass spectra were obtained with a FAB JMS-700 double focusing mass spectrometer (JEOL, Tokyo, Japan), MALDI Voyager DE-PRO (Applied Biosystem Houston, USA), and ESI Finnigan LCQ mass spectrometer (Thermo Finnigan, San Jose, Calif., United States) in negative mode. […] The separation procedure was performed using H2O/0.1% trifluoroacetic acid (TFA) (A) and CH3CN/0.05% TFA (B) as eluents.
(§1) Each compound was tested for α-2,3-ST inhibition using CMP-Neu5Ac as a substrate and a modified disaccharide with a 4,5-dimethoxy-2-nitrobenzyl group as a UV-labeled acceptor. Specifically, inhibition assays were performed in triplicate in reaction solution containing 200 mM MES buffer, 100 mM sodium chloride, 0.5 mM disodium-EDTA, 0.01% Triton X-100, 20 μM modified disaccharide, 1.4 mU α-2,3-ST and inhibitor (in dimethyl sulfoxide) in a total volume of 55. Reactions were incubated at 37° C. for 10 minutes at which point 1 mM CMP-Neu5Ac (to a final concentration 3 μM) was added. The solution was then incubated at 37° C. until a detectable amount of product was produced. The reaction was terminated by quenching the solution mixture with heat at 100° C. for 5 minutes. Enzyme activity was determined by monitoring the quantity of sialylated disaccharide product produced over time at 348 nm by RP-HPLC (Supelco Discovery® HS C18, 5 μm, 4.6 mm×25 cm).

CL1-5 lung cancer cells [1] = assay: Wound healing (cell migration) assay; format: cell-based; details: 10 μM, 48 hours, vs DMSO control
Experimental: A section of cells was then scraped from the culture plate to form a gap, and cell migration into the “wound” was observation over 48 hours in the continuous presence of α-2,3-ST inhibitor.

CL1-5 lung cancer cells [2] = assay: Cytotoxicity / cell growth, trypan blue exclusion; format: cell-based; details: 5 μM or 10 μM, 48 hours, FBS-free media
Experimental: To determine the effect of the synthesized membrane-permeable α-2,3-ST inhibitors disclosed in Example 1 on cellular processes, in vitro cytotoxicity and adhesion assays were performed on the highly metastatic lung cancer cell line CL1-5. CL1-5 cells were plated at 1×10^6 cells per 60 mm culture dish in DMEM containing 10% fetal bovine serum (FBS) in 5% CO2. The following day the media was replaced with FBS-free media containing inhibitors at 5 μM or 10 μM concentration in DMSO. Controls cells were treated with 0.1% DMSO-containing medium without inhibitor. Cell number and viability were determined 48 hours later by trypan blue exclusion. Treatment with three α-2,3-ST inhibitors, N-Pentyonic (compound 21), Lith-Triethyl-de (compound 20), and Lith-o-Asp (compound 13), inhibited CL1-5 cell growth by between 10-20% compared to control (FIG. 2A).

[3] = system: α-2,3-sialylated antigens on CL1-1 cells; assay: Cell surface α-2,3-sialylated antigens by FLOW cytometry (FITC-MAL), CL1-1; format: cell-based; details: both 5 μM and 20 μM, five days
Experimental: (§2) To determine whether α-2,3-ST inhibition alters cell surface glycosylation, lung cancer cells were treated with Lith-o-Asp and cell surface α-2,3-sialylated antigens were detected by FLOW cytometry. Cells were treated with α-2,3-ST inhibitor for five days after which 1×10^6 lung cancer cells were collected and washed twice with Hank's balanced salt solution (HBSS). Collected cells were incubated with FITC-conjugated MAL (1:50) at 37° C. for 15-20 minutes, non-binding MAL was removed by washing with HBSS, and 3×10^4 cells were detected on a FACScalibur instrument (Becton Dickinson). Two different lung cancer cell lines were tested: CL1-1 with low metastatic potential and CL1-5 with high metastatic potential. Since CL1-5 cells were derived from the CL1-1 line by an in vitro matrix gel invasion assay (Chen et al., Cancer Res., 2001, 61:5223), these cell lines share the same genetic background. Treatment of CL1-1 cells with Lith-o-Asp reduced expression of α-2,3-sialylated antigens to around 15% of DMSO treated control cells at both 5 μM and 20 μM (FIG. 4A). In contrast, Lith-o-Asp inhibited the expression of cell surface α-2,3-sialylated antigens in the highly metastatic CL1-5 lung cancer cells in a dose-dependent manner of greater than 15% (FIG. 4B).

[4] = system: α-2,3-sialylated antigens on CL1-5 cells; assay: Cell surface α-2,3-sialylated antigens by FLOW cytometry (FITC-MAL), CL1-5; format: cell-based; details: dose-dependent, five days
Experimental: as §2

rat α-2,3-ST = rat α-2,3-ST (Rattus norvegicus (Rat), UniProt Q02734); assay: Inhibition constant (Ki) determination, Lineweaver-Burk plot, varying CMP-Neu5Ac; format: biochemical; details: toward CMP-Neu5Ac
Experimental: as §1, with “cm). […]” for “cm).”
Reactions were prepared in inhibition assay reaction solution described above and were incubated for 10 minutes after which 0.3, 0.15, and 0.037 mM CMP-Neu5Ac was added in the presence of inhibitor at 5, 4.5, 3.5, 2.5, and 0 μM. […] The absolute Ki value was determined from the horizontal intercept of a Lineweaver-Burk plot with […] on the vertical axis and inhibitor concentration on the horizontal axis (FIG. 1).

α-2,3-ST = details: inhibition of α-2,3-ST, Hsu et al. 2005; cited from earlier work

Chain of Rat liver α-2,3-ST (Q02734 whole entry): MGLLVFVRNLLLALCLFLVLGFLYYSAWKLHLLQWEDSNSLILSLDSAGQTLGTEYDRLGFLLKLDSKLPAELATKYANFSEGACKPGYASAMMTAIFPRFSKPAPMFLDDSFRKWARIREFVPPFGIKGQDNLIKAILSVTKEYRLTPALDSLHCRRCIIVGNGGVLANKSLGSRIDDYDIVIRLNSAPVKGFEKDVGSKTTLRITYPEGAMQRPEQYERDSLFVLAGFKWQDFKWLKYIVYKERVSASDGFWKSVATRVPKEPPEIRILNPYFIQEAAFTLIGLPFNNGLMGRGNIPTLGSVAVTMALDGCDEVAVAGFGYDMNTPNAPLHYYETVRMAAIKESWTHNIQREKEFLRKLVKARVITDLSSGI
Chain of rat α-2,3-ST (Q02734 whole entry): as above

Row | SMILES | fold potency over lithocholic acid (Rat liver α-2,3-ST; vs lithocholic acid) | IC50 (Rat liver α-2,3-ST) | migration ability of CL1-5 cells (CL1-5 lung cancer cells [1]; listed as Lith-O-Asp) | migration ability of CL1-5 cells (CL1-5 lung cancer cells [1]; listed as Lith-o-Asp) | inhibition of CL1-5 cell growth compared to control (CL1-5 lung cancer cells [2]) | expression of α-2,3-sialylated antigens, % of DMSO treated control cells [3] | inhibition of expression of cell surface α-2,3-sialylated antigens [4] | Ki (rat α-2,3-ST) | type of inhibition (rat α-2,3-ST) | Ki (α-2,3-ST)
1 | C[C@H](CCC(=O)O)C1CC[C@H]2C3CC[C@@H]4C[C@H](OC(=O)[C@@H](N)CC(=O)O)CC[C@]4(C)C3CC[C@]12C (stereo partly drawn) [Compound 13, (R)-4-((3R,5R,10S,13R,14S)-3-((S)-2-amino-3-carboxypropanoyloxy)-10,13-dimethyl-hexadecahydro-1H-cyclopenta[a]phenanthren-17-yl)pentanoic acid] | 2 fold | 12 µM | inhibited cell migration | significantly decreased | 10-20% | around 15% | greater than 15% |  |  | 
2 | C[C@H](CCCn1cc(CCCC(=O)O)nn1)C1CC[C@H]2C3CC[C@@H]4C[C@H](O)CC[C@]4(C)C3CC[C@]12C (stereo partly drawn) [Compound 22, 4-(1-((R)-4-((3R,5R,10S,13R,14S)-3-hydroxy-10,13-dimethyl-hexadecahydro-1H-cyclopenta[a]phenanthren-17-yl)pentyl)-1H-1,2,3-triazol-4-yl)butanoic acid] |  | 5 µM |  |  |  |  |  | 2.2 µM | noncompetitive inhibition | 
3 | C[C@@H]1O[C@@H](O[C@H]2[C@H](O[C@H]3[C@H](O[C@H]4CC[C@@]5(C)[C@@H](CC[C@]6(C)[C@@H]5CC=C5[C@@H]7CC(C)(C)C[C@@H](O)[C@]7(C)CC[C@]56C)[C@@]4(C)CO)O[C@H](C(=O)O)[C@@H](O)[C@@H]3O)O[C@H](CO)[C@H](O)[C@@H]2O)[C@H](O)[C@H](O)[C@H]1O [Soyasaponin I] |  |  |  |  |  |  |  |  |  | 2100 µM
